# Test results as given in patent US6232294A, “Neuro-function regulatory agent” (Kabushiki Kaisha Hayashibara Seibutsu Kagaku Kenkyujo, priority 1997, dated 2001).
# Tests used:
# [1] = Acute toxicity test; settings: dose up to about 16 g per kg mouse (maximum challenged), intraperitoneal or oral, observed for a week
# Description: An adequate amount of "TREHAOSE®" , a crystalline trehalose powder commercialized by Hayashibara Shoji, Inc., Okayama, Japan, was dissolved in physiological saline containing 5 w/w % gum arabic, and the solution was sterilized in usual manner and intraperitoneally injected to ddy-mice, 20-25 g weight, in a group of 10 mice, or orally administered to the mice by using a stomach sonde. […] In parallel similar experiments were conducted using as glycosyl vitamin P "αG HESPERIDIN PA" with a total hesperidin content of 74-78%, d.s.b., a glycosyl hesperidin power commercialized by Hayashibara Shoji, Inc., Okayama, Japan, and "αG RUTIN PS" with a total rutin content of 80-82%, d.s.b., a glycosyl rutin powder commercialized by Hayashibara Shoji, Inc., Okayama, Japan.
# [2] = Clinical test in volunteers with chronic fatigue syndrome or slight depression; assay type: in vivo, human; settings: experiment conducted similarly with vitamin P
# Description: A medical technologist conducted the clinical experiment and 24 hours after the final administration asked the therapeutic effect and the side effects of the volunteers, and also asked the therapeutic effect and side effects of the volunteers on the basis of the relief of feeling of fatigue, malaise, loss of appetite, and insomnia, which were accompanied by the diseases. The therapeutic effect was evaluated based on four ranks; "very effective", "effective", "unchanged",and "worsened". The effectivity was expressed by a percentage of the number of volunteers, who answered "very effective" and "effective", to the total number of volunteers.
Compound,Mortality [1],Effect as compared with control (in words) [2]
"OC[C@H]1O[C@H](O[C@H]2O[C@H](CO)[C@@H](O)[C@H](O)[C@H]2O)[C@H](O)[C@@H](O)[C@@H]1O [TREHAOSE®, α,α-trehalose]",no mouse died,–
vitamin P,–,no significant effect was found as compared with control
